Experimental data: patent publication US10392443B2, “Diagnostic and therapeutic tool for cancer” (Agency for Science, Technology and Research, priority 2014, dated 2019)

Test system: MHCC-LM3 cells
Assay: Fibronectin attachment with recombinant Agrin coat, Western blot
Assay type: cell-based, human
Settings: Agrin depleted MHCC-LM3 cells; fibronectin supplemented with 20 μg/ml recombinant Agrin as ECM coat; 2 h post plating
Experimental: 72 h post transfections, cell lysates were analysed for indicated proteins; (b and c) show Western blot analysis of control or Agrin depleted MHCC-LM3 cells, which were serum starved overnight, trypsinized and plated on fibronectin or fibronectin supplemented with 20 μg/ml recombinant Agrin coated surface. […] Representative images under 20× magnification are shown and results quantitated using Image J software (P value=0.005). Thus, FIG. 6 validates the role of Agrin as an ECM sensor regulating focal adhesion, cell spreading and invasion to affect EMT program in HCC cell lines.
Briefly, culture plates were coated with 10 μg/ml fibronectin for 1 h at 37° C. Either control or Agrin knockdown cells (2*10^3 cells/ml) were trypsinized and plated on coated dishes. Adhered cells were analysed either by live cell imaging for morphological changes at indicated time-points or lysates were collected and subjected to Western blot analysis.

Substance: recombinant Agrin: Pure recombinant Agrin protein obtained from MyBiosource
- activation of focal adhesion kinase and Arp2/3: substantially increased
